Results on ten compounds are retold here after patent US5792635A, “Method of inhibiting the sodium/proton exchanger NHE3 and method of inhibiting growth by administering squalamine” (priority 1995, dated 1998).

One data set has as its system S. aureus. Nature of the data set: Antibiotic activity, MIC. In kind it is cell-based. Conditions: Staphylococcus aureus.
The test system of another data set is E. Coli. Nature of the data set: Antibiotic activity, MIC. Conditions: Escherichia coli. The data set is classed as cell-based.
The next data set concerns P. Nature of the data set: Antibiotic activity, MIC. In kind it is cell-based. The settings on record: read-out: MIC Values.
In the next data set the test system is C. albicans. Nature of the data set: Antibiotic activity, MIC. The data set is classed as cell-based. Conditions: Candida albicans.
The subject of data set [1] is Human ovarian carcinoma SKOV3. Nature of the data set: Cancer cells inhibited in vitro. The data set is classed as cell-based. Conditions: SKOV3. On the procedure: As set forth in Table 7 below, all malignant tumors evaluated in tissue culture, endothelial cells and vascular smooth muscle cells were sensitive to inhibition. Thus, compound 1436 has application in the control of growth factor dependent proliferation of many types of tissue.
Using the assay described above, the anticancer effects of compound 1437 against several cancer lines was assessed.

The nature of data set [2]: Effect on fasting blood glucose in mice. In kind it is in vivo, mouse (CD-1). The settings on record: intravenous; 1436 in D5W, 1437 in water. On the procedure:
To study the effect of steroid administrator or the NHE responsible for secretion of insulin, several of the aminosterols from shark liver were administered to fasting mice. Male CD-1 mice were assigned to one of four treatment groups. Whole blood glucose was tested using glucometer (Lifescan Glucometer II and One Touch test strips). Statistical analysis was via one-way analysis of variance (ANOVA) followed by subsequent Bonferonni's t-test.

In data set [3] the test system is Xenopus tadpoles. Nature of the data set: Tadpole assay. The settings on record: 10 μg/ml; stage 59-60 Xenopus.
In the next data set the test system is NHE1β. Conditions: nucleated erythrocytes; cited from earlier work.
Data set [4] deals with L1210 lymphoblastic leukemia cells. Description: Mouse model of leukemia (L1210), survival and hematological profile. The settings on record: L1210-inoculated mice.
Description: C57B mice were inoculated with L1210 lymphoblastic leukemia cells at an inoculum that causes leukemia in 100% of animals.
The subject of data set [5] is vitelline capillaries of 3- to 5-day chick embryo. Description: Chick embryo vitelline capillary regression assay. In kind it is in vivo. The settings on record: Table 5. As for the experimental part:
(§1) Using the chick embryo vitelline capillaries assay, compounds were tested for their ability to induce capillary regression. Each compound was applied in 0.1 ml of 15% Ficol 400 and PBS onto the embryo, and vascular regression was assessed after 60 minutes.
The 3-day chick embryo consists of an embryonic disc from which numerous vessels emerge and return, forming a "figure 8"-shaped structure--the embryo in the center with vascular loops extending outward over both poles. […] Following a lag period of around 15 minutes, the constriction of continuity between capillary and secondary vessels, generally on the "venous" side, was observed. Continued pulsatile blood flow progressed, resulting in a "swelling" of the blind tube, followed by a pinching off of the remaining connection and formation of an enclosed vascular sac resembling a "blood island." This process progressed until only the largest vessels remained intact.

The test system of a further data set is NHE. Description: Assay for direct inhibition of NHE. In kind it is cell-based. The settings on record: relative to squalamine. The source says:
Moreover, other aminosterols have shown anti-angiogenic activity. Compounds were subjected to a various assays, including the chick embryo capillary regression assay, the tadpole assay, the assay for inhibition of endothelial cord formation, and the assay for direct inhibition of NHE, as described above, to determine their utilities. As evident from the above data, correlation among the results from the chick, tadpole and in vitro inhibition of endothelial cell cord formation assays is excellent.
Through the application of these assays, compound 319 emerged as an attractive alternative to squalamine. […] Further properties of compound 319 are discussed below.

The subject of data set [6] is Xenopus tadpoles. Conditions: in vivo.
In data set [7] the test system is human microvascular cells. Description: Inhibition of endothelial cell cord formation in vitro. The data set is classed as cell-based. The settings on record: Homo sapiens, Endothelial cell; Table II; read-out: Minimum Effective Concentration, Cord Formation. The source says: Endothelial cells have the capacity in vitro to form tubular aggregates resembling capillaries in various early stages of formation. This conversion occurs under relatively specific conditions, in which essential growth factors along with an effective substratum are provided. It has been shown that both the interaction of growth factors with the endothelial cell and its attachment to a substratum activate the NHE. The activation of this exchanger is believed to be required for subsequent morphologic transformation of the endothelial cell into a multicellular tubular structure.
To assess the effect of compounds on the cord-like structures formed by human microvascular cells when plated in the presence of VEGF (Vascular Endothelial Growth Factor) and basic fibroblast growth factor on a collagen matrix, a standard cord formation assay was used.

A further data set concerns chick embryo. Nature of the data set: Chick embryo diss. assay (Table II). In kind it is in vivo. As for the experimental part:
as §1

The test system of a further data set is HM. Nature of the data set: HM MTT assay (Table II). The data set is classed as cell-based. The settings on record: read-out: Minimum Effective Concentration, HM MTT assay. Background: Tetrazolium assays rely on reduction of a dye to a coloured formazan, in cell work by metabolically active cells.
A further data set concerns LLC. Description: LLC MTT assay (Table II). In kind it is cell-based. Conditions: Lewis lung carcinoma, read-out: Minimum Effective Concentration, LLC MTT.

Each structure is given as a SMILES string. ≈ marks a conversion by molar mass, not a printed value. Entries after “also recorded” stand apart in the source; their conditions may differ.

As for `CC(C)CCC[C@@H](C)[C@H]1CC[C@H]2[C@@H]3CC[C@H]4C[C@H](NCCCCN)CC[C@]4(C)[C@H]3CC[C@]12C`, the MIC – broadly, the lowest concentration found to suppress growth – against S. aureus is 4 µg/mL (≈ 8.72 µM); against E. Coli it was greater than 256 µg/mL; with P., greater than 256 µg/mL; in the data set with C. albicans it was 64 µg/mL (≈ 139 µM).

With `CC(C)CCC[C@@H](C)[C@H]1CC[C@H]2[C@@H]3CC[C@H]4C[C@@H](NCCCCN)CC[C@]4(C)[C@H]3CC[C@]12C`, the MIC was 16 µg/mL (≈ 34.9 µM) against S. aureus, greater than 256 µg/mL in the data set with E. Coli, greater than 256 µg/mL in the data set on P. and greater than 256 µg/mL in the data set with C. albicans.

On to `CC(C)C(O)CC[C@@H](C)[C@H]1CC[C@H]2[C@@H]3[C@H](O)C[C@H]4C[C@@H](NCCCNCCCCN(C)C)CC[C@]4(C)[C@H]3CC[C@]12C` (stereo partly shown), for which, in the data set with P., the MIC stood at 129 µg/mL (≈ 224 µM).

`CC(C)C(CO)(CC[C@@H](C)[C@H]1CC[C@H]2[C@@H]3[C@H](O)C[C@H]4C[C@@H](NCCCNCCCCN)CC[C@]4(C)[C@H]3CC[C@]12C)OS(=O)(=O)O` (single isomer, unassigned) [Compound 1437]: the anticancer activity entry in [1] is “anticancer activity”. For the same compound, the hyperglycemic response result in data set [2] is on record as “caused hyperglycemia in mice”. The “observed response in tadpole” value with Xenopus tadpoles [3] was “Epithelium covering the embryonic portions of the animal, such as the tail and antennae, began to slough off in sheets; also recorded: Animal was otherwise active, with little tissue breakdown noted; also recorded: the larval skin was observed to shed off in a sheet”.

`N=C(N)NC(=O)c1nc(Cl)c(N)nc1N` [Amiloride]: the “inhibition of NHE1β” value in the data set on NHE1β was “inhibited by high concentrations of amiloride”.

As for `N.N.[Cl][Pt][Cl]` [Cisplatin, reference compound], in [4], the hematological profile entry is “profound anemia by day 28”.

Consider `C[C@H](CCC(=O)O)[C@H]1CC[C@H]2[C@@H]3CC[C@H]4C[C@@H](NCCCNCCCCN)CC[C@]4(C)[C@H]3CC[C@]12C` [Compound 319], for which, in data set [5], the “activity in vitelline capillary regression assay” value is listed as “especially active”. The “potency as an NHE inhibitor” value in the data set on NHE was “superior to squalamine”. The CNS effects result in the data set with Xenopus tadpoles [6] is on record as “no CNS effects”. In addition, the “observed response in tadpole” value with Xenopus tadpoles [3] is “common vascular occlusive effect”.

In the case of `COC(=O)CCC(C)[C@H]1CCC2C3C(CC[C@@]21C)[C@@]1(C)CC[C@@H](NCCN)C[C@H]1C[C@H]3O` (stereo partly shown) [drawing 93], the minimal effective concentration in data set [7] came out at 10 µg/mL; in the data set with HM, 2.6 µg/mL. Also, the “Minimum Effective Concentration, chick embryo diss. assay” value with chick embryo is 0.01 µg.

For the compound `COC(=O)CCC(C)[C@H]1CCC2C3CC[C@H]4C[C@H](NCCCNCCCCNCCCN)CC[C@]4(C)C3CC[C@@]21C` (stereo partly shown) [drawing 108], the “Minimum Effective Concentration, chick embryo diss. assay” value in the data set on chick embryo is greater than 1 µg. Moreover, the minimal effective concentration with LLC amounted to 6.8 µg/mL.

As to `CC(C)[C@@H](CC[C@@H](C)[C@H]1CC[C@H]2[C@@H]3[C@H](O)C[C@H]4C[C@@H](NCCCNCCCCNCCCN)CC[C@]4(C)[C@H]3CC[C@]12C)OS(=O)(=O)O` [drawing 119], the minimal effective concentration was found to be 6.9 µg/mL in the data set with HM and 16.7 µg/mL with LLC.
